The target of one experiment is T1, SULT1C3 (Homo sapiens, UniProt Q6IMI6).
T1 construct: recombinant, modified pET28a-LIC, bacterial expression; extra Gly-Ser at N-terminus
As to the kind of experiment: thermal aggregation shift (StarGazer static light scattering). As to conditions: 1 mM compound. In kind it is binding.

The target of experiment [1] is T2, SULT1B1 (Homo sapiens, UniProt O43704).
T2 construct: recombinant, modified pET28a-LIC, bacterial expression; extra Gly-Ser at N-terminus
As to the kind of experiment: HPLC PAPS to PAP conversion, inhibition of sulfotransferase activity. In kind it is biochemical. As to conditions: 1-naphthol as substrate; PCP 5 to 312 μM; pH 7.5, 37 °C.

The target of experiment [2] is T3, SULT1C2 (Homo sapiens, UniProt O75897).
T3 construct: gene SULT1C4; recombinant, modified pET28a-LIC, bacterial expression; extra Gly-Ser at N-terminus
T3 sequence (O75897 whole entry): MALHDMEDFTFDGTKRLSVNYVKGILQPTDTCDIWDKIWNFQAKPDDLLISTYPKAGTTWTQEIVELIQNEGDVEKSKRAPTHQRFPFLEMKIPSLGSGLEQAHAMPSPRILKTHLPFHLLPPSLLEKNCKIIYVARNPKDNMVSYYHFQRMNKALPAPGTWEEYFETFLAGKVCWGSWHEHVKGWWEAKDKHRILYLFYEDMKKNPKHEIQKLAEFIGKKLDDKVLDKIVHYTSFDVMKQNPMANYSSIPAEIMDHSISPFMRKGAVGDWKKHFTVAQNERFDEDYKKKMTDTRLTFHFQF
The experiment can be described thus: X-ray crystal structure, […] Å. It is filed as binding. As to conditions: ternary complex with PAP; substrate pocket.

For experiment [3], the target named is T2, SULT1B1. The experiment can be described thus: thermal aggregation shift (StarGazer static light scattering). It is filed as binding. To be noted: 1 mM compound. An excerpt:
thermal aggregation shift (StarGazer static light scattering) on SULT1B1

Another experiment addresses T4, SULT1A1 (Homo sapiens, UniProt P50225).
T4 construct: purified recombinant; clone and tag not described
The experiment is described as above. It is filed as binding. To be noted: 1 mM compound, pH 7.5, with saturating PAP. An excerpt:
thermal aggregation shift (StarGazer static light scattering) on SULT1A1

A further experiment concerns the target T5, SULT2A1 (Homo sapiens, UniProt Q06520).
T5 construct: purified recombinant; clone and tag not described
T5 sequence (Q06520 1-285): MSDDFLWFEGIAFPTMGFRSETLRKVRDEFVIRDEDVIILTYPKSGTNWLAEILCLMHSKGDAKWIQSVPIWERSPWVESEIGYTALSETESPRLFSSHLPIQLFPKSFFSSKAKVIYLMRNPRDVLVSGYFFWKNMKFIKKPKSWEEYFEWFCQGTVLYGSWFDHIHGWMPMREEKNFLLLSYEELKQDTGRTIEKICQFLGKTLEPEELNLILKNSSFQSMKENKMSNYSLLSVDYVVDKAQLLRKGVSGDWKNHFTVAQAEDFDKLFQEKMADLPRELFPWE
The experiment is described as above. In kind it is binding. To be noted: 1 mM compound, pH 7.5, without PAP. The source says:
thermal aggregation shift (StarGazer static light scattering) on SULT2A1

The target of a further experiment is T6, SULT1C1 (Homo sapiens, UniProt O00338).
T6 construct: gene SULT1C2; recombinant, modified pET28a-LIC; extra Gly-Ser at N-terminus
T6 sequence (O00338 whole entry): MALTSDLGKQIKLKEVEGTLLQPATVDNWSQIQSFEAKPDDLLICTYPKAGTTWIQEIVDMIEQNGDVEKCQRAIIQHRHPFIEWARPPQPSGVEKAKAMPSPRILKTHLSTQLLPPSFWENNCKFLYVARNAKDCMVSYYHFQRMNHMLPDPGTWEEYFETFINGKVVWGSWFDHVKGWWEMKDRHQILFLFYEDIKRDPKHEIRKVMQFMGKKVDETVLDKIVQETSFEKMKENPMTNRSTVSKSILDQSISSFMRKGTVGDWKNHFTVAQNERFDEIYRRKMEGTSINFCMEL
Described as above. In kind it is binding. As to conditions: 1 mM compound. An excerpt: thermal aggregation shift (StarGazer static light scattering) on SULT1C1

Experiment [4] addresses T3, SULT1C2. The description is as above. It is filed as binding. As to conditions: 1 mM compound, pH 7.5, no other ligand. An excerpt: thermal aggregation shift (StarGazer static light scattering) on SULT1C2
Another experiment concerns the target T7, SULT1A3 (Homo sapiens, UniProt P0DMM9).
T7 construct: purified recombinant; clone and tag not described; SULT1A4 encodes the same protein
The experiment is described as above. It is filed as binding. To be noted: 1 mM compound, pH 7.5, with saturating PAP. The source says:
thermal aggregation shift (StarGazer static light scattering) on SULT1A3

In another experiment the target is T8, SULT1E1 (Homo sapiens, UniProt P49888).
T8 construct: purified recombinant; clone and tag not described
T8 sequence (P49888 1-294): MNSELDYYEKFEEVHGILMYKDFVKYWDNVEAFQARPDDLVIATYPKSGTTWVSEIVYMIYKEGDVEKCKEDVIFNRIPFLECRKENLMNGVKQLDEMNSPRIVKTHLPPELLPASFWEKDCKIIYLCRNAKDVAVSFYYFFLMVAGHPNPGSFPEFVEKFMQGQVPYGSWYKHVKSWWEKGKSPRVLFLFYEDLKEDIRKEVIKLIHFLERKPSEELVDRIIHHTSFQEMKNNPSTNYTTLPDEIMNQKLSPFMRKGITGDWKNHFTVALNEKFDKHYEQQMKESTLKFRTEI
The description is as above. It is filed as binding. To be noted: 1 mM compound, pH 7.5, with saturating PAP. The source says:
thermal aggregation shift (StarGazer static light scattering) on SULT1E1

Another experiment concerns the target T9, SULT4A1 (Homo sapiens, UniProt Q9BR01).
T9 construct: recombinant, modified pET28a-LIC, bacterial expression; extra Gly-Ser at N-terminus
T9 sequence (Q9BR01 1-284): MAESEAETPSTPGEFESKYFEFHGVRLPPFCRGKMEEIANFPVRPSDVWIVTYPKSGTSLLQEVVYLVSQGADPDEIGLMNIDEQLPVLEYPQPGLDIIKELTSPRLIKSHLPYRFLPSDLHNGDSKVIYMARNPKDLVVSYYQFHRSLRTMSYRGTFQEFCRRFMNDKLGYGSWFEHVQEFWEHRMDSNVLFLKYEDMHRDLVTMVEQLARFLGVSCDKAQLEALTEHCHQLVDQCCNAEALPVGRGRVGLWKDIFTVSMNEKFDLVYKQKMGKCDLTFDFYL
The experiment is described as above. To be noted: 1 mM compound, pH 7.5, without PAP. It is filed as binding. The source says:
thermal aggregation shift (StarGazer static light scattering) on SULT4A1

T2 sequence (O43704 whole entry): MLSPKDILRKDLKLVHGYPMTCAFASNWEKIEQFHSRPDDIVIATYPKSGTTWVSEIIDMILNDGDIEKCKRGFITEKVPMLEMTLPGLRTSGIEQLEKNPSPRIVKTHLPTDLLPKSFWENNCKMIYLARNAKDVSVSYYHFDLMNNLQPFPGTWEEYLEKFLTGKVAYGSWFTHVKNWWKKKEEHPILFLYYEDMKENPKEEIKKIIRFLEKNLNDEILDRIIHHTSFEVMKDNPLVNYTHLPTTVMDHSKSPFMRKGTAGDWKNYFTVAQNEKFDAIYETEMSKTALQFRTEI
T1 sequence (Q6IMI6 whole entry): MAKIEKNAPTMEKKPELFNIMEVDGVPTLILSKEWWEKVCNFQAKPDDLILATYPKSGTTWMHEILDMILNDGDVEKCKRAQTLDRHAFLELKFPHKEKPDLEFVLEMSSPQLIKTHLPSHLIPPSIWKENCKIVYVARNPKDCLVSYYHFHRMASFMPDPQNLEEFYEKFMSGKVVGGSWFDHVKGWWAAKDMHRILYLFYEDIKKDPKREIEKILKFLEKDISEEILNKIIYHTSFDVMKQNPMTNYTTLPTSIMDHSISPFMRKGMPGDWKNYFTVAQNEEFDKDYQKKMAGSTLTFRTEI
T4 sequence (P50225 whole entry): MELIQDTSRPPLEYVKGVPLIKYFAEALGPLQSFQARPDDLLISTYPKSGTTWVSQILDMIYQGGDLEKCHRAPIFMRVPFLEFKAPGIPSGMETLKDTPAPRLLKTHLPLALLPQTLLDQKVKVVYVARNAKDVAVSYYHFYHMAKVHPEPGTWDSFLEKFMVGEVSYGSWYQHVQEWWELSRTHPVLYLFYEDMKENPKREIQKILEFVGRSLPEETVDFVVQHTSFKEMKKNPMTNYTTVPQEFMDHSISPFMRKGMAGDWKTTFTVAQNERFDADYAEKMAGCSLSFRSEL
T7 sequence (P0DMM9 whole entry): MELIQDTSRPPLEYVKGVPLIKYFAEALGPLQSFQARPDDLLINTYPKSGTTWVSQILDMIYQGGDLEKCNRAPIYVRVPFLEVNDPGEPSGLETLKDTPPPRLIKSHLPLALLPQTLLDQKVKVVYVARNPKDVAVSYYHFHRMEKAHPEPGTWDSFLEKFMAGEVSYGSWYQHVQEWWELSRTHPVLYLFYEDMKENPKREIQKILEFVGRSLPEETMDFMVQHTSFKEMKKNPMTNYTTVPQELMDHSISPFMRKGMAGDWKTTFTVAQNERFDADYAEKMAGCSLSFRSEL

On to `CCc1ccccc1O` [2-ethylphenol], for which the dTagg at SULT1C3 (pH 7.5, with saturating PAP) is 2.1 °C.
Consider `Oc1c(Cl)c(Cl)c(Cl)c(Cl)c1Cl` [pentachlorophenol], for which, on SULT1B1 [1], the “% inhibition” value was “PCP and DBHD were strong inhibitors of SULT1B1”. Also, on SULT1C2 [2], the “X-ray crystal structure, 1.8 Å” value was “we determined the structure of SULT1C2 bound to PAP and PCP”. In addition, the dTagg at SULT1B1 [3] (pH 7.5, with saturating PAP) was found to be 8.9 °C; on SULT1A1, 10.2 °C.
With `O=C(NN=Cc1coc2c(Cl)cc(Cl)cc2c1=O)c1cc(Br)c(O)c(Br)c1` [DBHD, 3,5-dibromo-4-hydroxy-benzoic acid (6,8-dichloro-4-oxo-4H-chromen-3-ylmethylene) hydrazide], the dTagg on SULT1B1 [3] (pH 7.5, without PAP) came out at 11.4 °C.
Take `C[C@H](CCC(=O)O)[C@H]1CC[C@H]2[C@@H]3CC[C@@H]4C[C@H](O)CC[C@]4(C)[C@H]3CC[C@]12C` [lithocholic acid]: the dTagg on SULT2A1 came out at 4.4 °C.
Turning to `O=c1c(O)c(-c2ccc(O)c(O)c2)oc2cc(O)cc(O)c12` [quercetin dihydrate], the dTagg at SULT1C1 (pH 7.5, without PAP) is 31 °C.
For `Nc1ncnc2c1ncn2[C@@H]1O[C@H](COP(=O)(O)O)[C@@H](OP(=O)(O)O)[C@H]1O` [3′-phosphoadenosine 5′-phosphate], the dTagg at SULT1C3 (pH 7.5, no other ligand) is 6.5 °C; at SULT1C2 [4], 6.4 °C; on SULT1C1 (pH 7.5, no other ligand), 4.5 °C; at SULT1B1 [3] (pH 7.5, no other ligand), 7.8 °C.
`Oc1ccc(/C=C/c2cc(O)cc(O)c2)cc1` [resveratrol]: the dTagg at SULT1C1 (pH 7.5, without PAP) was 6.6 °C.
In the case of `C[C@H]1CCC[C@H](O)CCC/C=C/c2cc(O)cc(O)c2C(=O)O1` [α-zearalenol], at SULT1C3 (pH 7.5, with saturating PAP), the dTagg came to 2.8 °C.
`NCCc1ccc(O)c(O)c1` [dopamine]: the dTagg on SULT1A3 worked out at 2.3 °C.
With `C#C[C@]1(O)CC[C@H]2[C@@H]3CCc4cc(O)ccc4[C@H]3CC[C@@]21C` [17α-ethinylestradiol], the dTagg on SULT1E1 was determined as 4.3 °C.
For the molecule `CNC[C@H](O)c1ccc(O)c(O)c1` [epinephrine], at SULT4A1, the dTagg is 16 °C.
As to `CC(C)NCC(O)c1ccc(O)c(O)c1` (stereo not shown) [isoprenaline], at SULT4A1, the dTagg came to 18 °C.
For `O=[N+]([O-])c1cc(Cl)c(O)c(Cl)c1` [2,6-dichloro-4-nitrophenol], the dTagg at SULT1A1 was 8.7 °C.

The record behind these values is publication PMC1847840, “Structural and Chemical Profiling of the Human Cytosolic Sulfotransferases” (PLoS Biology, 2007).
